Results from patent US20220257546A1, “KETONE BODIES ENCLOSED IN MICROBEADS” (Ketoswiss AG, priority 2019, published 2022).

Key:
[1] = βHB blood plasma concentration after 18 g βHB in microbeads or free (Example 3 cross-over trial); type: in vivo, human; settings: n=10
Excerpt: A dose of βHB contained in microbeads was 20 g of microbeads containing a mix of 50% R-3-hydroxybutyrate mineral salts (Na/Ca/K/Mg Blend 1:1:1:2) and 50% R-3-hydroxybutyric acid (βHB formulation). In particular, said βHB formulation was enriched in pockets dispersed throughout a polymerized yellow pea protein matrix of the microbead particles and constituted approximately 89 to 90% of the weight of the microbead. Thus, the βHB formulation comprised in said dose was about 18 g, in particular about 17.8 g.
The dose of non-enclosed (free) βHB was also about 18 g, in particular about 17.8 g, and the dose of empty microbeads was about 2 g, in particular about 2.2 g. Thus, the free βHB and empty microbeads were direct controls of the composition comprising βHB contained in microbeads.
For administration, one dose was suspended in 250 ml of lemon-flavored non-caloric water.
Participants arrived at the laboratory between 7.30 and 9.00 after an overnight fast, and provided a urine sample for hydration assessment (PEN Refractometer, Atago Instruments). Next, a fasting blood sample was taken via a cannula inserted into a superficial forearm vein for serial blood sampling. After providing a “fasting” blood sample, participants ingested a 250 mL lemon flavored non-caloric water drink wherein the 18 g dose of a microbead comprising the βHB formulation was suspended. After supplementation, baseline determinations tests were repeated for comparison between the pre- and post-supplementation periods. Every 30 min for three hours after ingestion, a blood sample was taken. After 3 hours, a blood sample was taken at 1-hour intervals. After 8 hours, a blood sample was taken at 2-hour intervals. Participants remained in the lab at quiet rest throughout this time period and were permitted to use entertainment headsets and the digital library and were allowed make short walks outside. […] The blood samples were, at least for the determination of AcAc levels, directly analyzed within 2 hours (or otherwise stored at −80° C. before analysis). […]

[2] = Tolerability of βHB, Example 3 trial; settings: about 18 g dose
Excerpt: (§1) The participants went to the visits A, B and C in a randomized order.
(§2) The experimental setup allowed to directly determine the physiological effects of ingesting βHB enclosed in microbeads compared to standard non-enclosed βHB. To distinguish the effects of βHB from effects of the enclosing material, i.e. the pea protein, participants have also ingested empty microbeads on one trial day.

[3] = Glucose blood plasma levels, Example 3 trial; type: in vivo, human; settings: about 18 g βHB formulation; snack provided at 6 h; n=10
Method: Participants arrived at the laboratory between 7.30 and 9.00 after an overnight fast, and provided a urine sample for hydration assessment (PEN Refractometer, Atago Instruments). Next, a fasting blood sample was taken via a cannula inserted into a superficial forearm vein for serial blood sampling. After providing a “fasting” blood sample, participants ingested a 250 mL lemon flavored non-caloric water drink wherein the 18 g dose of a microbead comprising the βHB formulation was suspended. After supplementation, baseline determinations tests were repeated for comparison between the pre- and post-supplementation periods. Every 30 min for three hours after ingestion, a blood sample was taken. After 3 hours, a blood sample was taken at 1-hour intervals. After 8 hours, a blood sample was taken at 2-hour intervals. Participants remained in the lab at quiet rest throughout this time period and were permitted to use entertainment headsets and the digital library and were allowed make short walks outside. Participants were offered some small snack 6 hours after consumption of the prototype drink which they could choose from low caloric yoghurts, muesli bars and low caloric fruit juices. […] The blood samples were, at least for the determination of AcAc levels, directly analyzed within 2 hours (or otherwise stored at −80° C. before analysis). […]

[4] = in vivo
Excerpt: as §1, §2

[5] = about 18 g βHB formulation oral

SMILES: C[C@@H](O)CC(=O)O [free βHB, R-3-hydroxybutyric acid]
- average plasma βHB concentration at peak ([1]; about 18 g βHB formulation oral in 250 ml lemon-flavored water, first measurement time-point): 1.5 mM
- time within which plasma βHB concentration dropped to baseline levels [1, 5]: ≤ 2 h
- time-point of peak average plasma βHB concentration [1, 5]: 0.5 h
- participants expressing mild nausea ([2]; of 10 participants): 4 participants
- participants expressing severe discomfort and sickness ([2]; of 10 participants): 3 participants
- participants reporting gastrointestinal distress (stomach cramping, upset, nausea, bloating, diarrhea) ([2]; within the first hour upon ingestion): 7 of 10 participants
- blood glucose levels upon ingestion [3]: not altered for at least 4 hours
- tolerability of the dose [4]: poorly tolerated
